Reference: patent US20040077881A1, “$G(d)1-pyrrolines used in pest control” (priority 2001, published 2004)
One block for each compound: values may come before it.

Tests used:
[1] = tested on: Amblyomma variegatum or A. hebraeum, nymphs which have sucked themselves full; test: Nymph ecdysis test on polyphagous ticks; format: in vivo; conditions: 100 ppm; nymphs immersed for 1 minute; assessed after 4 to 6 weeks
Experimental: [table] 20 mg of active compound are dissolved in 1 ml of dimethyl sulphoxide, more dilute concentrations are prepared by dilution with dist. H2O. 10 nymphs which have sucked themselves full are immersed for 1 minute into the preparation of active compound to be tested. The animals are transferred to petri dishes (Ø0 9.5 cm) fitted with filter discs and covered. After the nymphs have remained in a controlled-environment cabinet for 4 to 6 weeks, the effect on ecdysis is determined. 100% means that none of the animals have undergone normal ecdysis. 0% means that all animals have undergone ecdysis.

[2] = tested on: fruit tree spider mite (Panonychus ulmi); test: Panonychus test; format: in vivo; conditions: 200 ppm, plum trees sprayed
Experimental: To produce a suitable preparation of active compound, 1 part by weight of active compound is mixed with the stated amounts of solvent and emulsifier, and the concentrate is diluted with emulsifier-containing water to the desired concentration.
Plum trees (Prunus domestica) of a height of about 30 cm which are heavily infested by all stages of the fruit tree spider mite (Panonychus ulmi) are sprayed with a preparation of active compound of the desired concentration.
After the desired period of time, the effect in % is determined. 100% means that all spider mites have been killed; 0% means that none of the spider mites have been killed.

[3] = tested on: caterpillars of the diamond-back moth (Plutella xylostella); test: Plutella test; format: in vivo; conditions: 1000 ppm, cabbage leaves dipped
Experimental: [table] To produce a suitable preparation of active compound, 1 part by weight of active compound is mixed with the stated amounts of solvent and emulsifier, and the concentrate is diluted with emulsifier-containing water to the desired concentration. Cabbage leaves (Brassica oleracea) are treated by being dipped into the preparation of active compound of the desired concentration and are populated with caterpillars of the diamond-back moth (Plutella xylostella) whilst the leaves are still moist. After the desired period of time, the kill in % is determined. 100% means that all caterpillars have been killed; 0% means that none of the caterpillars have been killed.

[4] = logP determination by HPLC (EEC directive 79/831 Annex V.A8, reversed-phase C 18); format: physicochemical; conditions: reversed-phase HPLC column (C 18), pH 2.3, HPLC, reversed-phase column (C 18), 43° C., pH 2.3, 0.1% aqueous phosphoric acid/acetonitrile; read-out: log P
Experimental: The stated logP values were determined in accordance with EEC directive 79/831 Annex V.A8 by HPLC (High Performance Liquid Chromatography) using a reversed-phase column (C 18). Temperature: 43° C. In the acidic range, the determination was carried out at pH 2.3 using the mobile phases 0.1% aqueous phosphoric acid and acetonitrile; linear gradient from 10% acetonitrile to 90% acetonitrile.

Compound: O=S(=O)(Oc1ccc(-c2ccc([C@H]3C[C@H](Cl)C(c4c(F)cccc4F)=N3)cc2)cc1)C(F)(F)F [drawing 89]
Effect on ecdysis in % [1]: 100%

Compound: O=S(=O)(Oc1ccc(-c2ccc([C@H]3C[C@H](Cl)C(c4c(F)cccc4F)=N3)cc2)cc1)C(F)(F)F [drawing 55]
Kill rate in % after 14 d [2]: 100%

Compound: Fc1cccc(F)c1C1=NC(c2ccc(-c3ccc(OC(F)(F)F)cc3)cc2)CC1Cl (stereo not shown) [drawing 65]
Kill rate in % after 6 d [3]: 100%

Compound: Fc1cccc(F)c1C1=N[C@@H](c2ccc(-c3ccc(OC(F)(F)F)cc3)cc2)CC1(Cl)Cl [drawing 88]
Effect on ecdysis in % [1]: 100%

chromatographic logP [4]: 5.92
melting point: 60 to 61 °C
Compound: Fc1cccc(F)c1C1=NC(c2ccc(-c3ccc(OC(F)(F)F)cc3)cc2)CC1(Cl)Cl (stereo not shown) [Example 4, 4,4-dichloro-5-(2,6-difluorophenyl)-2-[4′-(trifluoromethoxy)-1,1′-biphenyl-4-yl]-3,4-dihydro-2H-pyrrole]

Compound: Fc1cccc(F)c1C1=NC(c2ccc(-c3ccc(OC(F)(F)F)cc3)cc2)CC1(Cl)Cl (stereo not shown) [drawing 87]
Effect on ecdysis in % [1]: 100%
